# Laboratory results taken from ChEMBL document CHEMBL5505952, “Targeting SARS-CoV-2 entry processes: The promising potential and future of host-targeted small-molecule inhibitors” (Eur J Med Chem, 2024).
# pEC50, pIC50, pKd: −log10 of the molar value. Where a SMILES comes first, the peptide text is derived from it. The star is where a group is joined. Cbz = O=C(OCc1ccccc1)*
# How the values were obtained:
# [1] = molecular target: T1, 1-phosphatidylinositol 3-phosphate 5-kinase (Homo sapiens, UniProt Q9Y2I7); assay: Binding affinity to N-terminal His-tagged human PIKfyve expressed in Sf9 cells assessed as dissociation constant
# T1 sequence (Q9Y2I7 whole entry): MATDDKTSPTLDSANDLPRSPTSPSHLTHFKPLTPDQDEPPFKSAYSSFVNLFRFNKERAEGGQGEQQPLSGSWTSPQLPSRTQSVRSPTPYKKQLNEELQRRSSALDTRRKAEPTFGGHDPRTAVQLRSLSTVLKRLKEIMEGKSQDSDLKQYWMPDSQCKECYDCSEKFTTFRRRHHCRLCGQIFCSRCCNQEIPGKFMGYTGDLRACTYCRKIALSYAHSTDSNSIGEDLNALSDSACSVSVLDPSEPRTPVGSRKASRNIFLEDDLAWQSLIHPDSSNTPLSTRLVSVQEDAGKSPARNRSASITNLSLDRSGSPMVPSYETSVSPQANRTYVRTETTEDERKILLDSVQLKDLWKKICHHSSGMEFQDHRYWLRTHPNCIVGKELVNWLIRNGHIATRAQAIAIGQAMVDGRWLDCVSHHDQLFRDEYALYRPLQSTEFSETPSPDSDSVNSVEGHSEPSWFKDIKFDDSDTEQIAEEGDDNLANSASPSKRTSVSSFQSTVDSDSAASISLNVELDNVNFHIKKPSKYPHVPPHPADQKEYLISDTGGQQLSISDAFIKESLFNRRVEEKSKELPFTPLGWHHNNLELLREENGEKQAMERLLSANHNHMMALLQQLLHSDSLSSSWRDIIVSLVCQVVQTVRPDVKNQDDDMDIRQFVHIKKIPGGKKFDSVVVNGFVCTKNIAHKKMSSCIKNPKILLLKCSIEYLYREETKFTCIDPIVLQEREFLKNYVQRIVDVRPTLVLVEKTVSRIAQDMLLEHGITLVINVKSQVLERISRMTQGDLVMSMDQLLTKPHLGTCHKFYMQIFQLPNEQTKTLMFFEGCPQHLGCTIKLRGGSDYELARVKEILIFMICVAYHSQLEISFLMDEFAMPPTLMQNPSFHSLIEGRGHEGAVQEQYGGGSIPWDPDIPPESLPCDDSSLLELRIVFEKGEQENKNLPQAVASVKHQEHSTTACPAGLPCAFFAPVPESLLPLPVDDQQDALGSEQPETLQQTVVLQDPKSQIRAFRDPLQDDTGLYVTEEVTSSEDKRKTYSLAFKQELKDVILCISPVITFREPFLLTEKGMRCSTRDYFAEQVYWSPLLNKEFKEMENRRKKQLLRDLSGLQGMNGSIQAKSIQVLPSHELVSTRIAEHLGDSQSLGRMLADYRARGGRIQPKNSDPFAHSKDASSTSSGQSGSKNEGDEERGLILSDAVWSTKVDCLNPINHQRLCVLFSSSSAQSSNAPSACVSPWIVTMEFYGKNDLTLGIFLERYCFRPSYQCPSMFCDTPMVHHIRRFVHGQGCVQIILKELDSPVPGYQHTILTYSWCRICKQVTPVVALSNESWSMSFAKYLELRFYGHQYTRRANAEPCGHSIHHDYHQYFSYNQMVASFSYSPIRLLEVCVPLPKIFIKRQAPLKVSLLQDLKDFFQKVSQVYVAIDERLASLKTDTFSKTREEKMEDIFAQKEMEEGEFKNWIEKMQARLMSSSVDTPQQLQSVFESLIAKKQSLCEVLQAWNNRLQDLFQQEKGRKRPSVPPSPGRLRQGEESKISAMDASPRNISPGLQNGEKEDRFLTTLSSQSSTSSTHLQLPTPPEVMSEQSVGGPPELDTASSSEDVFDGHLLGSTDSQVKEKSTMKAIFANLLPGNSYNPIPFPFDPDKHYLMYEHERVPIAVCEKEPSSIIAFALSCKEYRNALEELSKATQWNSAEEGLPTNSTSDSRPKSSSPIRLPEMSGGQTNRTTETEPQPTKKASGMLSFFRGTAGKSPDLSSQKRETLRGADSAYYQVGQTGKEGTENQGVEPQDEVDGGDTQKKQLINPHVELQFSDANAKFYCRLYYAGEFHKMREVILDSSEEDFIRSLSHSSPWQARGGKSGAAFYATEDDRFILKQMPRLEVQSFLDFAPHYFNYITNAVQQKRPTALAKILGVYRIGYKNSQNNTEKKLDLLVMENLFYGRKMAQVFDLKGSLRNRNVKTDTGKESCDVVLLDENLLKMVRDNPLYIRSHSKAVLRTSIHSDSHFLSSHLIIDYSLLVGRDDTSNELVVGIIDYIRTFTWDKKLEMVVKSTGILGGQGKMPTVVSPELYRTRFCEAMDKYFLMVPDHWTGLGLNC
# [2] = test system: SARS-CoV-2; assay: Antiviral activity against VSV-S pseudotyped SARS-CoV-2 infected in human Calu-3 cells assessed as inhibition of viral growth; type: functional, organism-based; conditions: Severe acute respiratory syndrome coronavirus 2, Calu-3
# [3] = test system: SARS-CoV-2; assay: Antiviral activity against SARS-CoV-2 WA1/2020 infected in human Calu-3 cells preincubated for 2 hrs followed by viral infection and measured after 48 hrs by microscopy analysis; type: functional, organism-based; conditions: Severe acute respiratory syndrome coronavirus 2, WA1/2020, Calu-3
# [4] = test system: SARS-CoV-2; type: functional, organism-based; conditions: Severe acute respiratory syndrome coronavirus 2, Vero C1008, 48 h
# [5] = molecular target: T1, 1-phosphatidylinositol 3-phosphate 5-kinase; assay: Inhibition of PIKfyve (unknown origin)
# [6] = test system: SARS-CoV-2; assay: microbe, parasite or virus in culture; conditions: Severe acute respiratory syndrome coronavirus 2, Vero C1008, 24 h
# [7] = test system: SARS-CoV-2; assay: microbe, parasite or virus in culture; conditions: Severe acute respiratory syndrome coronavirus 2, Calu-3, 48 h
# [8] = test system: SARS-CoV-2; type: functional, organism-based; conditions: Severe acute respiratory syndrome coronavirus 2, NRC-03-nhCoV, Vero C1008, 72 h
# [9] = test system: RAW264.7; assay: Antiinflammatory activity in mouse RAW264.7 cells assessed as effect on LPS induced IL-12p40 level measured after 24 hrs by RT-qPCR analysis; type: functional, cell-based; conditions: RAW264.7, 24 h
# [10] = test system: SARS-CoV-2; type: functional, organism-based; conditions: Severe acute respiratory syndrome coronavirus 2, NRC-03-nhCoV, Vero C1008
# [11] = test system: SARS-CoV-2; type: functional, organism-based; conditions: Severe acute respiratory syndrome coronavirus 2, Huh-7
# [12] = test system: SARS-CoV-2; assay: microbe, parasite or virus in culture; conditions: Severe acute respiratory syndrome coronavirus 2, Huh-7
# [13] = molecular target: Procathepsin L (Homo sapiens, UniProt P07711); assay: Inhibition of Cathepsin L (unknown origin)
# Procathepsin L, sequence (P07711 whole entry): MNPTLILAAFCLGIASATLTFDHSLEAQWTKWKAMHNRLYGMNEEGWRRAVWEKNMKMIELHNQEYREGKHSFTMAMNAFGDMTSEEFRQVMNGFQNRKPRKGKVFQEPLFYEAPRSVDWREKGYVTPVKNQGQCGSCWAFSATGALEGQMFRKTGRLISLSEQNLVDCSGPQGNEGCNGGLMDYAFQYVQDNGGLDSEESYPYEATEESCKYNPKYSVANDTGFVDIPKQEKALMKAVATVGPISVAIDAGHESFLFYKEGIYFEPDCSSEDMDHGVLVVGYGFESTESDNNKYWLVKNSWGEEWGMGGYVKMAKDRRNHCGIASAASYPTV
# [14] = test system: SARS-CoV-2; type: functional, organism-based; conditions: Severe acute respiratory syndrome coronavirus 2, Huh-7; remark: listed apart in the source
# [15] = molecular target: Replicase polyprotein 1ab (Severe acute respiratory syndrome coronavirus 2, UniProt P0DTD1); assay: Inhibition of SARS-CoV-2 MPro expressed in Escherichia coli BL21 (DE3) using Dabcyl-KTSAVLQSGFRKME-Edans as substrate incubated for 1 hr by fluorescence based analysis
# [16] = test system: SARS-CoV-2; assay: microbe, parasite or virus in culture; conditions: Severe acute respiratory syndrome coronavirus 2, Vero C1008, 24 h; remark: listed apart in the source
# [17] = test system: SARS-CoV-2; type: functional, organism-based; conditions: Severe acute respiratory syndrome coronavirus 2, Vero C1008, 48 h; remark: listed apart in the source
# [18] = test system: SARS-CoV-2; type: functional, organism-based; conditions: Severe acute respiratory syndrome coronavirus 2, Vero C1008, 72 h
smiles,measurement,setting,value
C1=Nc2ccccc2/C1=C\NNc1nc(Nc2ccccc2)nc(N2CCOCC2)n1,pKd,[1],9.04
CC[C@@H](C)[C@H](NC(C)=O)C(=O)N[C@@H](CCC(N)=O)C(=O)N[C@@H](Cc1ccccc1)C(=O)N[C@@H](CCCNC(=N)N)C(=O)c1nc2ccccc2s1,pEC50,[2],8.44
same,pIC50,[3],6.99
CCC(O)(CC)c1ccc2[nH]c3c(c2c1)Cc1nc(N)ncc1CC3,pIC50,[4],7.62
same,pIC50,[5],8.74
CS(=O)(=O)N[C@@H](CCC(N)=O)C(=O)N[C@@H](Cc1ccccc1)C(=O)N[C@@H](CCCNC(=N)N)C(=O)c1nc2ccccc2s1,pEC50,[2],8.55
CC(=O)N[C@@H](CO)C(=O)N[C@@H](CCCCN)C(=O)N[C@@H](CC(C)C)C(=O)N[C@@H](CCCNC(=N)N)C(=O)c1nc2ccccc2s1,pEC50,[2],5.37
CCN(CC)CCNC(=O)c1c(C)[nH]c(/C=C2\C(=O)Nc3ccc(F)cc32)c1C [SUNITINIB],pEC50,[6],5.62
same,pEC50,[7],5.54
N=C(N/N=C/c1ccncc1)c1nonc1NCNc1nonc1C(=N)N/N=C/c1ccncc1,pIC50,[8],7.80
COc1ccccc1/C=N/NC(=N)c1nonc1NCNc1nonc1C(=N)N/N=C/c1ccccc1OC,pIC50,[8],7.72
CC(=O)N1CCC[C@H]1C(=O)N[C@@H](CCC(N)=O)C(=O)N[C@@H](Cc1ccccc1)C(=O)N[C@@H](CCCNC(=N)N)C(=O)c1nc2ccccc2s1,pEC50,[2],9.07
same,pIC50,[3],6.98
Cc1ncc(-c2ccc(C3=CCN(C(C)C)CC3)nc2)cc1NC(=O)c1ccc2[nH]c(C)c(C)c2n1,pIC50,[9],8.70
Ic1cccc(/C=N/Nc2nc(N3CCOCC3)nc(N(c3ccccc3)c3ccccc3)n2)c1,pKd,[1],7.49
CC(=O)N[C@@H](CCC(N)=O)C(=O)N[C@@H](Cc1ccccc1)C(=O)N[C@@H](CCCNC(=N)N)C(=O)c1nc2ccccc2s1,pEC50,[2],9.28
same,pIC50,[3],7.28
CCC[C@H](NC(=O)[C@@H]1[C@H]2CCC[C@H]2CN1C(=O)[C@@H](NC(=O)[C@@H](NC(=O)c1cnccn1)C1CCCCC1)C(C)(C)C)C(=O)C(=O)NC1CC1,pIC50,[10],4.94
C[C@H](NC(=O)[C@H](Cc1ccccc1)NC(=O)OCc1ccccc1)C(=O)CF,pEC50,[11],5.02
same,pEC50,[12],3.15
CC(C)C[C@@H](C=O)NC(=O)[C@H](CC(C)C)NC(=O)[C@H](CC(C)C)NC(=O)OCc1ccccc1 [MG-132] (Cbz-Leu-Leu-Leu-aldehyde),pIC50,[13],7.91
same,pEC50,[11],6.67
same,pEC50,[14],6.68
CC(=O)N[C@@H](CC(C)C)C(=O)N[C@@H](CC(C)C)C(=O)N[C@H](C=O)CCCNC(=N)N,pEC50,[11],4.98
same,pIC50,[15],3.90
same,pEC50,[12],4.41
Cn1nc(C(C)(C)C)cc1C(=O)N[C@@H](Cc1cccc(Cl)c1)C(=O)NCC#N,pEC50,[16],6.85
CC(=O)N[C@H]1CC(=O)NCCCC[C@@H](C(=O)N[C@@H](CCCNC(=N)N)C(=O)c2nc3ccccc3s2)NC(=O)[C@H](CC(C)C)NC1=O,pEC50,[17],6.98
same,pEC50,[2],6.71
same,pIC50,[3],6.18
COc1ccc(C(=O)Nc2cccc(C(F)(F)F)c2)cc1Nc1nc(-c2cccnc2)c2[nH]ccc2n1,pEC50,[18],8.03
